Test results as given in PubChem BioAssay (NCI).
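Protocol summary: plate cells (96-well), add compound at 5 concentrations, incubate 48 h, interpolate endpoints linearly. TGI: total growth inhibition.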

Key:
Assay in all cases: NCI tumour cell line growth inhibition, 48 h
[1] = test system: SF-295 CNS
[2] = test system: MDA-MB-231 breast
[3] = test system: CCRF-CEM leukemia
[4] = test system: DU-145 prostate
[5] = test system: HL-60(TB) leukemia
[6] = test system: HCT-15 colon
[7] = test system: ACHN renal
[8] = test system: HOP-62 NSCLC
[9] = test system: LOX IMVI melanoma
[10] = test system: SK-MEL-2 melanoma
[11] = test system: SNB-19 CNS
[12] = test system: KM12 colon
[13] = test system: HCT-116 colon
[14] = test system: CAKI-1 renal
[15] = test system: NCI/ADR-RES ovarian
[16] = test system: UO-31 renal
[17] = test system: NCI-H460 lung
[18] = test system: IGROV1 ovarian
[19] = test system: HS 578T breast
[20] = test system: COLO 205 colon
[21] = test system: MCF7 breast
[22] = test system: SF-268 CNS
[23] = test system: T-47D breast
[24] = test system: UACC-257 melanoma
[25] = test system: A549 NSCLC
[26] = test system: SK-OV-3 ovarian
[27] = test system: SN12C renal
[28] = test system: K-562 leukemia
[29] = test system: BT-549 breast
[30] = test system: MDA-N
[31] = test system: OVCAR-8 ovarian
[32] = test system: RXF 393 renal
[33] = test system: TK-10 renal
[34] = test system: SK-MEL-5 melanoma
[35] = test system: HOP-92 NSCLC
[36] = test system: M14 melanoma
[37] = test system: SK-MEL-28 melanoma
[38] = test system: RPMI-8226 leukemia
[39] = test system: NCI-H23 lung
[40] = test system: MDA-MB-435
[41] = test system: OVCAR-5 ovarian
[42] = test system: 786-0 renal
[43] = test system: EKVX NSCLC
[44] = test system: NCI-H226 lung
[45] = test system: UACC-62 melanoma
[46] = test system: U251 CNS
[47] = test system: OVCAR-3 ovarian
[48] = test system: HT29 colon
[49] = test system: A498 renal
[50] = test system: SW-620 colon
[51] = test system: SR leukemia
[52] = test system: OVCAR-4 ovarian
[53] = test system: PC-3 prostate
[54] = test system: MOLT-4 leukemia
[55] = test system: HCC-2998 colon

## CC1C2C=CC1C(c1c3ccc(=O)c(O)c-3oc3c(O)c(O)ccc13)C2C(=O)O (stereo not given)
[1]
  TGI: > 100 µM
[2]
  TGI: > 100 µM
[3]
  TGI: 7.38 µM
[4]
  TGI: > 100 µM
[5]
  TGI: > 100 µM
[6]
  TGI: > 100 µM
[7]
  TGI: > 100 µM
[8]
  TGI: > 100 µM
[9]
  TGI: 49.1 µM
[10]
  TGI: > 100 µM
[11]
  TGI: > 100 µM
[12]
  TGI: > 100 µM
[13]
  TGI: 69.7 µM
[14]
  TGI: > 100 µM
[15]
  TGI: > 100 µM
[16]
  TGI: > 100 µM
[17]
  TGI: > 100 µM
[18]
  TGI: > 100 µM
[19]
  TGI: > 100 µM
[20]
  TGI: > 100 µM
[21]
  TGI: 40.8 µM
[22]
  TGI: > 100 µM
[23]
  TGI: > 100 µM
[24]
  TGI: > 100 µM
[25]
  TGI: > 100 µM
[26]
  TGI: > 100 µM
[27]
  TGI: 51.1 µM
[28]
  TGI: 45.8 µM
[29]
  TGI: > 100 µM
[30]
  TGI: 45.9 µM
[31]
  TGI: > 100 µM
[32]
  TGI: > 100 µM
[33]
  TGI: > 100 µM
[34]
  TGI: > 100 µM
[35]
  TGI: > 100 µM
[36]
  TGI: > 100 µM
[37]
  TGI: > 100 µM
[38]
  TGI: 59.5 µM
[39]
  TGI: > 100 µM
[40]
  TGI: 36.2 µM
[41]
  TGI: > 100 µM
[42]
  TGI: > 100 µM
[43]
  TGI: > 100 µM
[44]
  TGI: 86.5 µM
[45]
  TGI: > 100 µM
[46]
  TGI: > 100 µM
[47]
  TGI: > 100 µM
[48]
  TGI: > 100 µM
[49]
  TGI: > 100 µM
[50]
  TGI: > 100 µM
[51]
  TGI: > 100 µM
[52]
  TGI: > 100 µM
[53]
  TGI: > 100 µM
[54]
  TGI: 56.4 µM
[55]
  TGI: > 100 µM
